In ChEMBL document CHEMBL1799929, “Efficient sequential synthesis of PET Probes of the COX-2 inhibitor [11C]celecoxib and its major metabolite [11C]SC-62807 and in vivo PET evaluation” (Bioorg Med Chem, 2011) one finds Drug uptake data, which are given here for two molecules.

A value given as a limit tells only on which side of the number the result lay.

What all share (format): ADME, organism-based
Series [1] deals with Blood. The experiment in a line: Drug uptake in Sprague-Dawley rat blood at 0.29 to 1.3 nmol/body, iv after 60 mins by gamma counting based PET imaging method. The following applies: in vivo, 1 h.
In series [2] the test system is Blood. The experiment in a line: Drug uptake in Sprague-Dawley rat blood at 0.29 to 1.3 nmol/body, iv after 40 mins by gamma counting based PET imaging method. The following applies: in vivo.
In series [3] the test system is Liver. Put plainly: Drug uptake in Sprague-Dawley rat liver at 0.29 to 1.3 nmol/body, iv after 10 mins by gamma counting based PET imaging method. The following applies: in vivo.
Series [4] deals with Liver. Put plainly: Drug uptake in Sprague-Dawley rat liver at 0.20 to 1.4 nmol/body, iv after 2 mins by gamma counting based PET imaging method. The following applies: in vivo.
Another series has as its system Kidney. Put plainly: Drug uptake in Sprague-Dawley rat kidney at 0.20 to 1.4 nmol/body, iv after 2 mins by gamma counting based PET imaging method. The following applies: in vivo.
A further series has as its system Intestine. Put plainly: Drug uptake in Sprague-Dawley rat intestine at 0.20 to 1.4 nmol/body, iv after 60 mins by gamma counting based PET imaging method. The following applies: in vivo, 1 h.
A short description of series [5]: Drug uptake in Sprague-Dawley rat urinary bladder at 0.20 to 1.4 nmol/body, iv after 60 mins by gamma counting based PET imaging method. The following applies: in vivo, 1 h.
Series [6] deals with Blood. The experiment in a line: Drug uptake in Sprague-Dawley rat blood at 0.20 to 1.4 nmol/body, iv within 40 mins by gamma counting based PET imaging method. The following applies: in vivo.
In series [7] the test system is Liver. Put plainly: Drug uptake in Sprague-Dawley rat liver at 0.20 to 1.4 nmol/body, iv within 40 mins by gamma counting based PET imaging method. The following applies: in vivo.
A short description of series [8]: Drug uptake in Sprague-Dawley rat bile at 0.20 to 1.4 nmol/body, iv within 40 mins by gamma counting based PET imaging method. The following applies: in vivo.
Series [9] can be described thus: Drug uptake in Sprague-Dawley rat urine at 0.20 to 1.4 nmol/body, iv within 40 mins by gamma counting based PET imaging method. The following applies: in vivo.

For `[11CH3]c1ccc(-c2cc(C(F)(F)F)nn2-c2ccc(S(N)(=O)=O)cc2)cc1`, the Drug uptake in the series on Blood [1] is on record as above 1 %ID/ml; with Blood [2], “Active”; in the series with Liver [3], “Active”.
As to `NS(=O)(=O)c1ccc(-n2nc(C(F)(F)F)cc2-c2ccc([11C](=O)O)cc2)cc1`, the Drug uptake is 35 %ID with Liver [4]; 14 %ID with Kidney; 58 %ID in the series with Intestine; 22 %ID in series [5]; “Active” with Blood [6]; “Active” in the series on Liver [7]. In addition, the Drug uptake result in series [8] and in [9] was “Active” throughout.
